“Also recorded” adds a separate entry of the source.
Tests used:
[1] = Thermal radical initiator screening, DAB decomposition by sonication in BenchMark Reaction Buffer; details: for Effect on DAB decomposition with sonication: BenchMark Reaction Buffer; for Sonication time after which no DAB monomer was detectable: DAB 68.1 mg/L in BenchMark Reaction Buffer, initiator approx. 0.0882 mmol per 25 mL
Protocol: Sonication can form acoustic cavitation in liquids causing the formation, growth and implosive collapse of bubbles and heat generation. Sonication was used to thermally activate thermal radical initiators to induce DAB decomposition. Thermal radical initiator screening experiments were performed using a MisonixSonicator 3000 Ultrasonic Liquid Processor. The sonicator voltage converter and horn were connected to a microtip probe. […] A DAB sample in RTD BenchMark Reaction Buffer (68.1 mg/L) was sonicated with or without the presence of a thermal radical initiator. […] The sonication mixed the sample efficiently.

[2] = Radical initiator screening in DAB UV oxidation (Aquatop 10 W in-line UV sterilizer, BenchMark Reaction Buffer); details: for Impact on DAB UV oxidation: 30 min UV exposure, relative to no initiator; for % Loss DAB (30 min UV): DAB 68.1 mg/L in BenchMark Reaction Buffer, initiator approx. 0.882 mmol per 250 mL, 10 W
[3] = DAB UV oxidation in in-line UV sterilizers, BenchMark IHC waste matrix; details: for UV irradiation time for DAB monomer to decrease to LOD: 55 W
Protocol: DAB degradation rates were determined using HPLC analysis to monitor DAB concentration change in Milli-Q® deionized (“DDI”) water, BenchMark Reaction Buffer and BenchMark IHC waste matrices. HPLC analyses were performed on a Waters Acquity Ultra Performance Liquid Chromatography (“UPLC”) instrument with photodiode array (“PDA”) detection. Standard reverse phase chromatography was used for UPLC analyses in BenchMark Reaction Buffer and DDI water matrices. Reverse phase HPLC chromatography with ion-pairing was used for DAB analysis in BenchMark waste. DAB samples were analyzed without filtration or dilution.
A SIELC PrimeSep S column 2.1×100 mm (5μ) and 2.1×10 mm guard column HPLC column was used. The eluents were 40% acetonitrile in 50 mM ammonium formate (pH=4.0). The flow rate was 0.2 mL/min, the gradient profile was an isocratic elution, the column temperature was 30° C., and the injection volume was 8 μL. The PDA detection wavelengths were 210 to 499 nm (2.4 nm resolution and 20 pts/sec). The expected retention time (in BenchMark waste) for DAB and 2-HOPyr was 2.56 min and 1.64 min, respectively.
Multiple UV irradiation flow-through systems were used to examine UV promoted DAB oxidation. A commercial in-line UV water sterilizers with preset lamp wattage and UV irradiation chamber geometry, namely, an Aquatop 10 W In-line UV sterilizer (Aquatop p/n: IL10-UV), was used to treat water up to a 211 gallon/hour flow rate. The sterilizer featured an external variable-speed micropump gear pump that controlled fluid flow rates with the assistance of an independent power supply. Samples were irradiated with active mixing, dwell mixing, or no mixing. For in-line UV sterilizers that were used without mixing pumps, inversion mixing was performed to create a uniform sample prior to sampling. Multiple UV sterilizer UV lamp wattages were examined (10, 18 and 55 W). Multiple UV irradiation sources may be installed adjacently with serial connection to each other to increase effluent exposure time.
DAB UV oxidation experiments were performed in the Aquatop 10 W in-line UV sterilizer as above with variable sample matrices (i.e. DDI water versus BenchMark IHC Waste). […] A fresh BenchMark Ultra OptiView DAB with TSA Amp IHC Waste was used for this experiment where the aqueous layer was separated from a majority of the LCS by gravity. The BenchMark IHC Waste still contained some LCS, which was finely dispersed with the BenchMark IHC waste surfactants. Both samples were irradiated by UV light for 75 minutes. The Aquatop in-line sterilizer was inverted (2×) using an air pocket to mix the matrix uniformly prior to sampling. The reaction mixture was analyzed by UPLC every 10 minutes.
DAB UV oxidation experiments were performed within in-line UV water sterilizers with different UV lamp wattages. […] The Aquatop in-line sterilizer was inverted (2×) using an air pocket to mix the matrix uniformly prior to sampling. The reaction mixture was analyzed by UPLC every 10 minutes.

[4] = DAB UV oxidation in 36 W top-down UV irradiation test bed, Reaction Buffer matrix; format: physicochemical
Protocol: As shown in FIGS. 9A-9C, a test bed was prepared to investigate top-down UV irradiation systems without direct liquid contact to the UV irradiation source (also referred to as “UV lamp light”). This test bed used two 18 W lamps to irradiate the fluid matrix from above while the liquid meandered through a predetermined path in the metal tray below to control sample exposure time. The UV light sources may be installed adjacently in parallel connection to each other (e.g. UV light array, etc.) to increase the power of the array. Alternatively, the UV light sources may be installed serially to increase exposure time. A second bottom irradiation plastic container was prepared without the pathway. UV light is absorbed as it goes through a liquid medium causing the aqueous layer furthest from the lamp to receive less UV irradiation. This test bed was used to examine liquid layer thickness and waste matrix impurities (i.e. LCS, DAB oxidation products, etc.) impact on DAB UV decomposition rates.
The 36 W top-down UV irradiation test bed without direct sample liquid contact to the UV light source was used to investigate matrix layer thickness tolerance during DAB UV irradiation (FIGS. 9A-9C). UV light is absorbed as it goes through a liquid medium causing the aqueous layer furthest from the lamp to receive less UV irradiation. A DAB sample in Reaction Buffer matrix was prepared at the expected waste concentration with approximately 20% (v/v) LCS. OptiView DAB IHC detection kit DAB chromogen, detection peroxide and inhibitor peroxide reagents were added to BenchMark Reaction Buffer matrix (143 μL each reagent per 250 mL). The 36 W top-down UV irradiation test bed bottom was filled with a specific matrix layer thickness (i.e. 10-, 20- or 30-mm thickness). The DAB sample was treated with UV irradiation without mixing and a sample was removed every 2 minutes to 10 minutes and then every 5 minutes thereafter through 30 minutes. The matrix sample was analyzed by RP UPLC.
The 36 W top-down UV irradiation test bed without direct sample liquid contact to the UV light source was used to investigate how LCS could be tolerated during DAB UV irradiation in a top-down configuration. A DAB sample in Reaction Buffer matrix was prepared at the expected waste concentration with or without approximately 20% (v/v) LCS. OptiView DAB IHC detection kit DAB chromogen, detection peroxide and inhibitor peroxide reagents were added to Reaction Buffer matrix (143 μL each reagent per 250 mL). These Reaction Buffer/LCS mixed matrix was tested with LCS not mixed, mixed by inversion 20× to form an initial bubble LCS emulsion, and vigorously mixed to form an initial opaque LCS emulsion.
The 36 W top-down UV irradiation test bed bottom was filled with a 10 mm volume layer thickness. The DAB sample was treated with UV irradiation without mixing and a sample was removed every 2 minutes to 10 minutes and then every 5 minutes thereafter through 30 minutes. The matrix sample was analyzed by RP UPLC. […] These DAB intermediates remained in solution longer when the opaque white LCS layer was present.

[5] = DAB UV oxidation in in-line UV sterilizer, DDI water matrix; format: physicochemical
Protocol: A DAB sample in DDI water (68.1 mg/L) was treated with 3% hydrogen peroxide as a radical initiator (1 mL per approx. 225 mL DAB sample). […] Mixing aided the diffusion of the homolytic hydrogen peroxide UV oxidation product (HO·), which oxidized DAB.
The sample was irradiated by UV light (60 to 90 min).

CC(C)(N=NC(C)(C)C(=N)N)C(=N)N [2,2′-azobis(2-methylpropionatnidine)]
Effect on DAB decomposition with sonication [1]: promoted DAB oxidation with sonication

CC(C#N)(CCC(=O)O)N=NC(C)(C#N)CCC(=O)O (stereo not shown) [4,4′-azobis(4-cyanovaleric acid)]
Effect on DAB decomposition with sonication [1]: promoted DAB oxidation with sonication

Nc1ccc(C(=O)c2ccccc2)cc1 [ABP, 4-amino-benzophenone]
Impact on DAB UV oxidation [2]: appeared to inhibit DAB oxidation
% Loss DAB (30 min UV) [2]: 16%

CC(C)(C#N)N=NC(C)(C)C#N [AIBN, azobisisobutyronitrile]
Sonication time after which no DAB monomer was detectable [1]: 25 min
Impact on DAB UV oxidation [2]: minimal impact on DAB UV oxidation
% Loss DAB (30 min UV) [2]: 64%

N.N.O=S(=O)(O)OOS(=O)(=O)O [APS, ammonium persulfate]
Sonication time after which no DAB monomer was detectable [1]: ≤ 5 min
% Loss DAB (30 min UV) [2]: 100%
DAB loss ([2]; after 2 minutes exposure to the initiator): > 95%

CCN(CC)c1ccc(C(=O)c2ccc(N(CC)CC)cc2)cc1 [BDABP, 4,4′-bisdiethylaminobenzophenone]
Impact on DAB UV oxidation [2]: decreased the amount of DAB monomer found in solution
% Loss DAB (30 min UV) [2]: 68%

O=C(OOC(=O)c1ccccc1)c1ccccc1 [Benzoyl Peroxide, benzoyl peroxide]
Sonication time after which no DAB monomer was detectable [1]: 5 min
Impact on DAB UV oxidation [2]: decreased the amount of DAB monomer found in solution
% Loss DAB (30 min UV) [2]: 72%

Nc1ccc(-c2ccc(N)c(N)c2)cc1N [DAB, 3,3′-diaminobenzidine]
Time to DAB monomer at or below HPLC LOD ([3]; BenchMark IHC waste, 10 W, 3 mL 3% peroxide per 250 mL): ≤ 30 min
UV irradiation time for DAB monomer to decrease below LOD ([3]; BenchMark IHC waste, 18 W, 3% hydrogen peroxide 20 mL per approx. 1.5 L): Approximately 90 minutes
UV irradiation time for DAB monomer to decrease to LOD ([3]; BenchMark IHC waste, 3% hydrogen peroxide 20 mL per approx. 1.5 L): 30 min
DAB monomer still detectable ([3]; BenchMark waste, 10 W, 60 minutes UV irradiation, without hydrogen peroxide): about 21%
UV irradiation time for DAB monomer to decrease to LOD ([3]; both BenchMark IHC waste matrices (with and without LCS emulsion), hydrogen peroxide): 30 to 40 min
UV irradiation time to no DAB intermediates (dimers, trimers) ([4]; 10 mm matrix layer thickness): 15 to 20 min
UV irradiation time to no DAB intermediates (dimers, trimers) ([4]; 20 mm matrix layer thickness): 25 min
UV irradiation time to no DAB intermediates (dimers, trimers) ([4]; 30 mm matrix layer thickness, intermediates still shown): > 30 min
UV irradiation time to no DAB intermediates ([4]; Reaction Buffer only matrix, 10 mm layer): 4 to 6 min
UV radiation time after which no DAB monomer was detected ([4]; all aqueous layer thicknesses (10, 20, 30 mm), approx. 20% (v/v) LCS, no mixing): 2 to 4 min
UV radiation time after which no DAB monomer was detected ([4]; all sample matrices (with or without LCS, emulsions), 10 mm layer): 2 to 4 min
UV irradiation time to no DAB intermediates ([4]; clear LCS layered matrix, 10 mm layer): 10 to 15 min
UV irradiation time to no DAB intermediates ([4]; other LCS emulsion samples, 10 mm layer): 20 to 25 min
DAB monomer detected ([5]; 10 W in-line UV sterilizer, 15 minutes of static UV irradiation without any mixing): Approximately 34%
DAB monomer still detectable ([5]; 10 W, 60 minutes UV irradiation, absence of hydrogen peroxide): Approximately 10%
UV irradiation time after which no DAB monomer was detected ([5]; 10 W, presence of hydrogen peroxide (1 mL 3% per approx. 225 mL)): 50 min
UV irradiation time after which DAB monomer was not detectable ([5]; 55 W UV in-line sterilizer, RP UPLC, data not shown): 20 to 30 min
DAB monomer by UPLC after storage overnight at 10° C. ([5]; samples that received only 2 minutes UV irradiation): not detected; also recorded: No DAB monomer was detected
DAB monomer still detectable ([2]; BenchMark Reaction Buffer, 60 minutes UV irradiation, absence of hydrogen peroxide): Approximately 38%
DAB monomer detected ([2]; BenchMark Reaction Buffer, 60 minutes of UV irradiation, presence of hydrogen peroxide): Less than 5%

OO [Hydrogen Peroxide, hydrogen peroxide]
Effect on DAB decomposition with sonication [1]: failed to show any substantial DAB decomposition
Solubility in water: completely soluble in water
% Loss DAB (30 min UV) [2]: 96%

CC(=O)OO [Peracetic Acid, peracetic acid]
Solubility in water: completely soluble in water
Impact on DAB UV oxidation [2]: decreased the amount of DAB monomer found in solution
% Loss DAB (30 min UV) [2]: 73%

CC1(C)CCCC(C)(C)N1[O] [TEMPO]
Impact on DAB UV oxidation [2]: appeared to inhibit DAB oxidation
% Loss DAB (30 min UV) [2]: 45%
